Activity calls are given as the source filed them. The calls are words filed in the database; no cut-off is given here.
Key:
[1] = Anti-osteoporosis activity C57/BL6 mouse bone marrow macrophage cells assessed as inhibition of RANKL-induced osteoclastogenesis at 1 uM measured after 5 to 6 days in presence of M-CSF and RNKL by TRAP staining microscopic analysis; format: functional, BMDM; design: scale not given: the % may be the effect or the level left; details: time 5-6 day
[2] = Anti-osteoporosis activity C57/BL6 mouse bone marrow macrophage cells assessed as inhibition of RANKL-induced osteoclastogenesis at 0.1 uM measured after 5 to 6 days in presence of M-CSF and RNKL by TRAP staining microscopic analysis; format: functional, BMDM; design: scale not given: the % may be the effect or the level left; details: time 5-6 day
BMDM [3] = experiment: Cytotoxicity against C57/BL6 mouse bone marrow macrophage cells assessed as reduction in cell viability at 10 uM incubated for 3 days by CCK8 assay; format: toxicity, cell-based; details: 72 h, time 3 day
BMDM [4] = experiment: Anti-osteoporosis activity C57/BL6 mouse bone marrow macrophage cells assessed as inhibition of RANKL-induced osteoclastogenesis and measured after 5 to 6 days in presence of M-CSF by TRAP staining based assay; format: functional, cell-based; details: dose 0.1-5 µM, time 5-6 day, DDE = dose-dependent effect
BMDM [5] = experiment: Cytotoxicity against C57/BL6 mouse bone marrow macrophage cells at 5 uM measured after 3 days in presence of M-CSF by CCK-8 assay; format: toxicity, cell-based; details: 72 h, time 3 day
BMDM [6] = experiment: Anti-osteoporosis activity C57/BL6 mouse bone marrow macrophage cells assessed as inhibition of RANKL-induced F-actin levels upto 5 uM measured after 5 to 6 days in presence of M-CSF by DAPI staining analysis; format: functional, cell-based; details: time 5-6 day
BMDM [7] = experiment: Anti-osteoporosis activity C57/BL6 mouse bone marrow macrophage cells assessed as inhibition of RANKL-induced F-actin size upto 5 uM measured after 5 to 6 days in presence of M-CSF by DAPI staining analysis; format: functional, cell-based; details: time 5-6 day
[8] = Anti-osteoporosis activity C57/BL6 mouse bone marrow macrophage cells assessed as inhibition of RANKL-induced osteoclastogenesis measured after 5 to 6 days in presence of M-CSF by DAPI staining analysis; format: functional, cell-based; details: bmdm
BMDM [9] = experiment: Inhibition of RANKL-induced TRAP in mRNA expression in C57/BL6 mouse bone marrow macrophage cells upto 5 uM measured after 3 days by qRT-PCR analysis; format: functional, cell-based; details: time 3.0 day
BMDM [10] = experiment: Inhibition of RANKL-induced Cathepsin K in mRNA expression in C57/BL6 mouse bone marrow macrophage cells upto 5 uM measured after 3 days by qRT-PCR analysis; format: functional, cell-based; details: time 3.0 day
BMDM [11] = experiment: Inhibition of RANKL-induced c-fos in mRNA expression in C57/BL6 mouse bone marrow macrophage cells upto 5 uM measured after 3 days by qRT-PCR analysis; format: functional, cell-based; details: time 3.0 day
BMDM [12] = experiment: Inhibition of RANKL-induced NFATc1 in mRNA expression in C57/BL6 mouse bone marrow macrophage cells upto 5 uM measured after 3 days by qRT-PCR analysis; format: functional, cell-based; details: time 3.0 day
[13] = target: T1, Tumor necrosis factor ligand superfamily member 11 (Homo sapiens, UniProt O14788); experiment: Binding affinity to human RANKL assessed as dissociation constant by surface plasmon resonance method
T1 sequence (O14788 whole entry): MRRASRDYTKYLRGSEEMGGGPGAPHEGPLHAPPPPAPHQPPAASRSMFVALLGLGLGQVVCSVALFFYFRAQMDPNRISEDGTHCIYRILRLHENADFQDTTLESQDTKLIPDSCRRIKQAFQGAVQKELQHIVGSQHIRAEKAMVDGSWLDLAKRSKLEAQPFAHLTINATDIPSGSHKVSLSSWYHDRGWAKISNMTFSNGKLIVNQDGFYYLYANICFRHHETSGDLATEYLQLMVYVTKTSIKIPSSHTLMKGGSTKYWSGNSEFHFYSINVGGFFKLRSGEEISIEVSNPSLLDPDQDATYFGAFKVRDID

BMDM [14] = experiment: Inhibition of RANKL-induced c-FOS protein expression in C57/BL6 mouse bone marrow macrophage cells upto 10 uM measured for 3 days in presence of M-CSF and RANKL by Western blot analysis; format: functional, cell-based; details: time 3.0 day, DDE = dose-dependent effect
BMDM [15] = experiment: Inhibition of RANKL-induced NFATC1 protein expression in C57/BL6 mouse bone marrow macrophage cells upto 10 uM measured for 3 days in presence of M-CSF and RANKL by Western blot analysis; format: functional, cell-based; details: time 3.0 day, DDE = dose-dependent effect
[16] = AUC(0 to t) in OVX-induced C57/BL6 mouse model at 3 mg/kg, iv; format: ADME, organism-based; design: dose 3 mg/kg, route iv; details: female, in vivo
[17] = Half life in OVX-induced C57/BL6 mouse model at 3 mg/kg, iv; format: ADME, organism-based; details: female, in vivo
[18] = Clearance in OVX-induced C57/BL6 mouse model at 3 mg/kg, iv; format: ADME, organism-based; details: female, in vivo
[19] = Oral bioavailability in OVX-induced C57/BL6 mouse model; format: ADME, organism-based; details: female, in vivo
Mus musculus [20] = experiment: Anti-osteoporosis activity in OVX-induced C57/BL6 mouse model assessed as increase in bone mineral density by measuring recovery at 60 mg/kg, po once per day for 28 days by microCT imaging analysis; format: functional; details: time 28 day
[21] = AUC(0 to t) in OVX-induced C57/BL6 mouse model at 5 mg/kg, po; format: ADME, organism-based; design: dose 5 mg/kg, route po; details: female, in vivo
[22] = Cmax in OVX-induced C57/BL6 mouse model at 5 mg/kg, po; format: ADME, organism-based; design: dose 5 mg/kg, route po; details: female, in vivo
[23] = Half life in OVX-induced C57/BL6 mouse model at 5 mg/kg, po; format: ADME, organism-based; details: female, in vivo
Mus musculus [24] = experiment: Anti-osteoporosis activity in ligature-induced periodontal BALB/c mouse model assessed as decrease in bone loss at 20 mg/kg, ip measured for 4 weeks by microCT imaging analysis; format: functional, organism-based
Mus musculus [25] = experiment: Anti-osteoporosis activity in ligature-induced periodontal BALB/c mouse model assessed as increase in alveolar bone mass at 20 mg/kg, ip measured for 4 weeks by microCT imaging analysis; format: functional
Mus musculus [26] = experiment: Anti-osteoporosis activity in ligature-induced periodontal BALB/c mouse model assessed as increase in bone volume at 20 mg/kg, ip measured for 4 weeks by microCT imaging analysis; format: functional
Mus musculus [27] = experiment: Anti-osteoporosis activity in ligature-induced periodontal BALB/c mouse model assessed as increase in vertical bone at 20 mg/kg, ip measured for 4 weeks by microCT imaging analysis; format: functional

Compound: Cc1cccc(C)c1NC(=O)c1cc2c([nH]c3ccccc32)c(CCc2ccccc2)n1
- Activity [1]: 89.3%
- Activity [2]: 45.9%
- Cell viability (BMDM [3]): > 100%
- Activity (BMDM [4]): Dde
- Activity (BMDM [5]): Non-Toxic
- Activity (BMDM [6]): Active
- Activity (BMDM [7]): Active
- IC50 [8]: 520 nM
- inhibition (BMDM [9]): Active
- inhibition (BMDM [10]): Active
- inhibition (BMDM [11]): Active
- inhibition (BMDM [12]): Active
- Kd [13]: 5030 nM
- inhibition (BMDM [14]): Dde
- inhibition (BMDM [15]): Dde
- AUC(0-t) [16]: 2710 ng·h/mL
- half-life [17]: 5.1 h
- clearance [18]: 18.6 mL/min/kg
- bioavailability [19]: 4.9%
- Activity (Mus musculus [20]): 23.4%
- AUC(0-t) [21]: 223 ng·h/mL
- Cmax [22]: 48.1 ng/mL
- half-life [23]: 2 h
- Activity (Mus musculus [24]): Active
- Activity (Mus musculus [25]): 60.7%
- Activity (Mus musculus [26]): 51.9%
- Activity (Mus musculus [27]): 67%
